{"source": "patent US11938136B2", "about": "“Compositions for treating spinal muscular atrophy” (Hoffmann-La Roche Inc., priority 2015, dated 2024)", "key": {"SMN1 splicing": {"tested_on": "SMN1 splicing", "experiment": "Ex vivo whole blood assay, SMN1 splicing", "assay_type": "cell-based, human", "details": "whole blood cells from healthy volunteers, 4 hours", "protocol": "(A) SMN2 splicing in SMA Type 1 fibroblasts. (B) SMN protein in SMA Type 1 fibroblasts. (C) SMN protein in SMA Type 1 motor neurons. (D) SMN1 and SMN2 splicing in whole blood derived from HV. Fibroblasts from SMA Type 1 patients were cultured for 24 hours (A) or 48 hours (B); motor neurons from SMA Type 1 patient iPSCs (induced Pluripotent Stem Cells) were cultured for 72 hours (C) and whole blood cells from healthy volunteers (HV) for 4 hours (D) in the presence of the compound of Example 20. SMN splicing was assessed by RT-PCR, and SMN protein levels were assessed by homogenous time-resolved fluorescence (HTRF) in fibroblast lysates, and by immunostaining for SMN in motor neurons. Data represent means standard error (SEM) of 3 evaluations per data point and are expressed as fold change vs. untreated controls. To further assess SMN2 splicing as a potential blood biomarker, an ex vivo assay was developed using whole blood cells from healthy volunteers in which SMN1 and SMN2 splicing was assessed after 4 hours treatment with the compound of Example 20 (at this time point, maximal splicing changes were achieved)."}, "[1]": {"tested_on": "full length SMN2 minigene mRNA", "experiment": "SMN2 minigene mRNA splicing RT-qPCR assay in cultured cells", "assay_type": "cell-based, human", "text": "The term “EC1.5x concentration for production of full length SMN2 minigene mRNA” (or “EC1.5x minigene”) is defined as that concentration of test compound that is effective in increasing the amount of full length SMN2 minigene mRNA to a level 1.5-fold greater relative to that in vehicle-treated cells.\nThe reverse transcription-quantitative PCR-based (RT-qPCR) assay is used to quantify the level of the full length SMN2 minigene (referred to herein by the term “FL SMN2mini”) mRNA containing SMN2 exon 7 in a HEK293H cell line stably transfected with said minigene and treated with a test compound. Materials used and respective sources are listed below in Table 1.\nThe SMN2-A minigene construct was prepared as described in International Patent Application WO2009/151546A1 page 145 paragraph [00400] to page 147 paragraph [00412](incl. FIG. 1 and FIG. 3 therein).\nHEK293H cells stably transfected with the SMN2-A minigene construct (10,000 cells/well) are seeded in 200 μL of cell culture medium (DMEM plus 10% FBS, with 200 μg/mL hygromycin) in 96-well flat-bottom plates and the plate is immediately swirled to ensure proper dispersal of cells and the formation of an even monolayer of cells. Cells are allowed to attach for 6 hours. Test compounds are serially diluted 3.16-fold in 100% DMSO to generate a 7-point concentration curve. A solution of test compound (1 μL, 200× in DMSO) is added to each cell-containing well and the plate is incubated for 24 hours in a cell culture incubator (37° C., 5% CO2, 100% relative humidity). 2 replicates are prepared for each test compound concentration. The cells are then lysed in the Cells-To-Ct lysis buffer and the lysate is stored at −80° C.\nFull length SMN2-A minigene and GAPDH mRNA are quantified using the primers and probes referenced in WO2014/209841A2 on page 80 in Table 1. Primer SMN Forward A (SEQ ID NO.1) hybridizes to a nucleotide sequence in exon 7 (nucleotide 22 to nucleotide 40), primer SMN Reverse A (SEQ ID NO.2) hybridizes to a nucleotide sequence in the coding sequence of Firefly luciferase, SMN Probe A (SEQ ID NO.3) hybridizes to a nucleotide sequence in exon 7 (nucleotide 50 to nucleotide 54) and exon 8 (nucleotide 1 to nucleotide 21). The combination of these three oligonucleotides detects only SMN1 or SMN2 minigenes (RT-qPCR) and will not detect endogenous SMN1 or SMN2 genes.\nThe SMN forward and reverse primers are used at final concentrations of 0.4 μM. The SMN probe is used at a final concentration of 0.15 μM. The GAPDH primers are used at final concentrations of 0.2 μM and the probe at 0.15 μM.\nThe SMN2-minigene GAPDH mix (15 μL total volume) is prepared by combining 7.5 μL of 2×RT-PCR buffer, 0.4 μL of 25×RT-PCR enzyme mix, 0.75 μL of 20×GAPDH primer-probe mix, 4.0075 μL of water, 2 μL of 10-fold diluted cell lysate, 0.06 μL of 100 μM SMN forward primer, 0.06 μL of 100 μM SMN reverse primer, and 0.225 μL of 100 μM SMN probe.\nPCR is carried out at the following temperatures for the indicated time: Step 1: 48° C. (15 min); Step 2: 95° C. (10 min); Step 3: 95° C. (15 sec); Step 4: 60° C. (1 min); then repeat Steps 3 and 4 for a total of 40 cycles.\nEach reaction mixture contains both SMN2-A minigene and GAPDH primers/probe sets (multiplex design), allowing simultaneous measurement of the levels of two transcripts.\nThe increase in the abundance of the FL SMN2mini mRNA relative to that in cells treated with vehicle control is determined from real-time PCR data using a modified ΔΔCt method (as described in Livak and Schmittgen, Methods, 2001, 25:402-8). The amplification efficiency E is calculated from the slope of the amplification curve for FL SMN2mini and GAPDH individually. The abundance of FL SMN2mini and GAPDH mRNA are then calculated as (1+E)^−Ct, where Ct is the threshold value for each amplicon. The abundance of FL SMN2mini mRNA is normalized to GAPDH mRNA abundance. […]"}, "[2]": {"tested_on": "splicing events and expression levels of genes", "experiment": "Transcriptional profiling analysis", "assay_type": "cell-based", "text": "The specific function of STRN3, SLC25A17, and GGCT and consequences of their dysregulation have not been elucidated so far. These three genes are also consistently found to be affected at the higher dose (5-fold higher than the EC90), a dose used in order to illustrate the maximum effect of this compound. Splicing events of 11 genes, including the genes FoxM1 and MADD, were affected at the higher dose but not by the lower dose. FoxM1 and MADD have been described as being involved in cell cycle regulation and apoptosis, respectively."}}}
{"smiles": "Cc1cn2nc(-c3cc(=O)n4cc(N5CCNC6(CC6)C5)ccc4n3)cc(C)c2n1", "note": "[Example 20, 7-(4,7-diazaspiro[2.5]octan-7-yl)-2-(2,8-dimethylimidazo[1,2-b]pyridazin-6-yl)pyrido[1,2-a]pyrimidin-4-one]", "values": [{"measurement": "effect on SMN1 splicing", "setting": "SMN1 splicing", "result": "largely unaffected"}, {"measurement": "EC (1.5-fold increase)", "setting": "[1]; Homo sapiens, HEK293-H, HEK293H cells stably transfected with SMN2-A minigene, 24 hours, 7-point concentration curve, read-out: EC1.5x minigene", "result": "0.0047 ± 0.0007", "unit": "µM"}, {"measurement": "maximum induction of SMN2 minigene full length mRNA", "setting": "[1]; cells expressing the SMN2 minigene", "result": 20, "unit": "fold"}, {"measurement": "number of genes whose expression levels were changed (p<0.01)", "setting": "[2]; 121 nM dose", "result": 0}, {"measurement": "genes whose splicing events were affected", "setting": "[2]; 121 nM, compared to control", "result": "STRN3, SLC25A17 and GGCT"}, {"measurement": "number of genes whose splicing events were affected at the higher dose but not by the lower dose", "setting": "[2]; higher dose, 5-fold higher than the EC90, including FoxM1 and MADD", "result": 11}, {"measurement": "EC90", "setting": "[2]; read-out: EC90 (therapeutically relevant concentration)", "result": 121, "unit": "nM"}]}
